For data set [1] the following is noted: cited from earlier work.
Another data set has as its system Lewis Lung tumor cells. Description: Lewis Lung Model: tumor volume and lung metastasis. In kind it is in vivo, Mice. From the text: The data is expressed as the mean +/−SEM. […] Analysis of lung metastasis is done in all the animals by counting metastasis in a stereomicroscope and by histochemical analysis of consecutive lung sections.
For data set [2] the following is noted: doses of 15 mg/kg/day, biliary cirrhosis trials; cited from earlier work.
For data set [3] the following is noted: cited from earlier work. This is another data set of the same source.

Where a name gives a salt, the structure may show the parent alone.

On to `CC[C@@]1(O)C(=O)OCc2c1cc1n(c2=O)Cc2cc3c(CN(C)C)c(O)ccc3nc2-1` [Topotecan hydrochloride, (S)-10-((dimethylamino)methyl)-4-ethyl-4,9-dihydroxy-1H-pyrano(3′,4′:6,7)indolizino(1,2-B)quinoline-3,14-(4H,12H)-dione monohydrochloride], for which, in data set [1] (mice, single IV infusion), the LD10 was 75 mg/m^2. For the compound `Cc1ccc(-c2cc(C(F)(F)F)nn2-c2ccc(S(N)(=O)=O)cc2)cc1` [Celecoxib, 4-[5-(4-methylphenyl)-3-(trifluoromethyl)-1H-pyrazol-1-yl]-benzenesulfonamide], the “size of the metastatic lesions in the lung” value with Lewis Lung tumor cells (histopathological analysis) is recorded as “dose-dependently reduces the size of the metastasic lesions in the lung”. For the same compound, the “effect on lung metastasis” value with Lewis Lung tumor cells (lower dose of 160 ppm in the diet) is recorded as “does not affect lung metastasis”. As to `C[C@H](CCC(=O)O)[C@H]1CC[C@H]2[C@@H]3[C@@H](O)C[C@@H]4C[C@H](O)CC[C@]4(C)[C@H]3CC[C@]12C` [URSO], the tolerability and toxicity result in data set [2] was “extremely well tolerated and without toxicity”.

With `CCc1c2c(nc3ccc(OC(=O)N4CCC(N5CCCCC5)CC4)cc13)-c1cc3c(c(=O)n1C2)COC(=O)[C@]3(O)CC.Cl` [Irinotecan hydrochloride, (4S)-4,11-diethyl-4-hydroxy-9-((4-piperidinopiperidino)carbonyloxy)-1H-pyrano(3′,4′:6,7)indolizino(1,2-b)quinoline-3,14(4H,12H)dione hydrochloride], in data set [3], the Lethality in rats result is given as “in rats: 73 mg/kg”. The Lethality in mice entry in data set [1] is “mice: 111 mg/kg”.
